# Measurements as given in PubChem BioAssay AID2060615 (Molecular Pharmacology Branch, DTP, NCI, 2025).
# Test system: 496974-208-R-J2-PDC complex spheroids, growth % test/control
# Test: Anticancer human tumor 496974-208-R-J2-PDC patient-derived pancreatic carcinoma cell line growth inhibition [CLK]
# Settings: for IC50: curve of first compound; for viability, T/C: stronger effect = lower value
# Summary of the method: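 Patient-derived tumor cells grown as complex spheroids with HUVEC endothelial cells and mesenchymal stem cells, treated with drug combinations. Concentrations descend in half-log steps from near clinical Cmax, or from 10 microM if Cmax unknown.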
# [1] = second compound 0.0316 µM, first compound 0.0316 µM
# [2] = second compound 0.0316 µM, first compound 0.1 µM
# [3] = second compound 0.0316 µM, first compound 0.316 µM
# [4] = second compound 0.0316 µM, first compound 1 µM
# [5] = second compound 0.0316 µM, first compound 3.16 µM
# [6] = second compound 0.0316 µM, first compound 10 µM
# [7] = second compound 0.1 µM, first compound 0.0316 µM
# [8] = second compound 0.1 µM, first compound 0.1 µM
# [9] = second compound 0.1 µM, first compound 0.316 µM
# [10] = second compound 0.1 µM, first compound 1 µM
# [11] = second compound 0.1 µM, first compound 3.16 µM
# [12] = second compound 0.1 µM, first compound 10 µM
# [13] = second compound 0.316 µM, first compound 0.0316 µM
# [14] = second compound 0.316 µM, first compound 0.1 µM
# [15] = second compound 0.316 µM, first compound 0.316 µM
# [16] = second compound 0.316 µM, first compound 1 µM
# [17] = second compound 0.316 µM, first compound 3.16 µM
# [18] = second compound 0.316 µM, first compound 10 µM
# [19] = second compound 1 µM, first compound 0.0316 µM
# [20] = second compound 1 µM, first compound 0.1 µM
# [21] = second compound 1 µM, first compound 0.316 µM
# [22] = second compound 1 µM, first compound 1 µM
# [23] = second compound 1 µM, first compound 3.16 µM
# [24] = second compound 1 µM, first compound 10 µM
# [25] = second compound 3.16 µM, first compound 0.0316 µM
# [26] = second compound 3.16 µM, first compound 0.1 µM
# [27] = second compound 3.16 µM, first compound 0.316 µM
# [28] = second compound 3.16 µM, first compound 1 µM
# [29] = second compound 3.16 µM, first compound 3.16 µM
# [30] = second compound 3.16 µM, first compound 10 µM
# [31] = second compound 10 µM, first compound 0.0316 µM
# [32] = second compound 10 µM, first compound 0.1 µM
# [33] = second compound 10 µM, first compound 0.316 µM
# [34] = second compound 10 µM, first compound 1 µM
# [35] = second compound 10 µM, first compound 3.16 µM
# [36] = second compound 10 µM, first compound 10 µM
# 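Also: spheroids exposed to the drugs for 7 days before readout.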
# 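For viability, T/C in this document: 100% = DMSO vehicle control wells.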
structure (smiles),measurement,setting,value
C=CC(=O)N1CCN(c2nc(=O)n(-c3c(C)ccnc3C(C)C)c3nc(-c4c(O)cccc4F)c(F)cc23)C(C)C1 (stereo unspecified) + CNC(=O)c1ccc(Nc2nc(OC3CCCC3)c3c(-c4ccc5nc(C)oc5c4)c[nH]c3n2)c(OC)c1,IC50,second compound 0.0316 µM,> 10 µM
same,IC50,second compound 0.1 µM,> 10 µM
same,IC50,second compound 0.316 µM,> 10 µM
same,IC50,second compound 1 µM,> 10 µM
same,IC50,second compound 3.16 µM,7.28 µM
same,IC50,second compound 10 µM,4.7 µM
same,"viability, T/C",[1],106%
same,"viability, T/C",[2],95.9%
same,"viability, T/C",[3],93.6%
same,"viability, T/C",[4],107%
same,"viability, T/C",[5],102%
same,"viability, T/C",[6],85.7%
same,"viability, T/C",[7],71.5%
same,"viability, T/C",[8],67.4%
same,"viability, T/C",[9],78.5%
same,"viability, T/C",[10],77.1%
same,"viability, T/C",[11],73%
same,"viability, T/C",[12],64.8%
same,"viability, T/C",[13],78.8%
same,"viability, T/C",[14],76.5%
same,"viability, T/C",[15],71%
same,"viability, T/C",[16],76.2%
same,"viability, T/C",[17],71.1%
same,"viability, T/C",[18],53.3%
same,"viability, T/C",[19],63.2%
same,"viability, T/C",[20],62.8%
same,"viability, T/C",[21],67.7%
same,"viability, T/C",[22],68.8%
same,"viability, T/C",[23],66%
same,"viability, T/C",[24],49%
same,"viability, T/C",[25],51.6%
same,"viability, T/C",[26],62.4%
same,"viability, T/C",[27],52.3%
same,"viability, T/C",[28],58.5%
same,"viability, T/C",[29],55%
same,"viability, T/C",[30],42.7%
same,"viability, T/C",[31],62%
same,"viability, T/C",[32],51.5%
same,"viability, T/C",[33],51.6%
same,"viability, T/C",[34],54.3%
same,"viability, T/C",[35],55.7%
same,"viability, T/C",[36],41%
CCCS(=O)(=O)Nc1ccc(F)c(C(=O)c2c[nH]c3ncc(-c4ccc(Cl)cc4)cc23)c1F + CNC(=O)c1ccc(Nc2nc(OC3CCCC3)c3c(-c4ccc5nc(C)oc5c4)c[nH]c3n2)c(OC)c1,IC50,second compound 0.0316 µM,6.39 µM
same,IC50,second compound 0.1 µM,6.36 µM
same,IC50,second compound 0.316 µM,> 10 µM
same,IC50,second compound 1 µM,2.59 µM
same,IC50,second compound 3.16 µM,0.0681 µM
same,IC50,second compound 10 µM,< 0.0316 µM
same,"viability, T/C",[1],94.7%
same,"viability, T/C",[2],73.7%
same,"viability, T/C",[3],115%
same,"viability, T/C",[4],100%
same,"viability, T/C",[5],91%
same,"viability, T/C",[6],23.6%
same,"viability, T/C",[7],71.5%
same,"viability, T/C",[8],47.6%
same,"viability, T/C",[9],78.6%
same,"viability, T/C",[10],86%
same,"viability, T/C",[11],78.2%
same,"viability, T/C",[12],35.6%
same,"viability, T/C",[13],70.7%
same,"viability, T/C",[14],45.4%
same,"viability, T/C",[15],76.3%
same,"viability, T/C",[16],71.2%
same,"viability, T/C",[17],78.2%
same,"viability, T/C",[18],29.6%
same,"viability, T/C",[19],51.2%
same,"viability, T/C",[20],44.1%
same,"viability, T/C",[21],64.5%
same,"viability, T/C",[22],69.5%
same,"viability, T/C",[23],66.2%
same,"viability, T/C",[24],22.4%
same,"viability, T/C",[25],52%
same,"viability, T/C",[26],26%
same,"viability, T/C",[27],61.9%
same,"viability, T/C",[28],63.3%
same,"viability, T/C",[29],53.1%
same,"viability, T/C",[30],19.8%
same,"viability, T/C",[31],50.7%
same,"viability, T/C",[32],30.5%
same,"viability, T/C",[33],58.6%
same,"viability, T/C",[34],61.7%
same,"viability, T/C",[35],64%
same,"viability, T/C",[36],27.2%
COC1C=CCC(C)C(C)S(=O)(=O)NC(=O)c2ccc3c(c2)N(CC2CCC21)CC1(CCCc2cc(Cl)ccc21)CO3 (stereo unspecified) + CNC(=O)c1ccc(Nc2nc(OC3CCCC3)c3c(-c4ccc5nc(C)oc5c4)c[nH]c3n2)c(OC)c1,IC50,second compound 0.0316 µM,5.11 µM
same,IC50,second compound 0.1 µM,3.49 µM
same,IC50,second compound 0.316 µM,0.19 µM
same,IC50,second compound 1 µM,0.0521 µM
same,IC50,second compound 3.16 µM,0.0404 µM
same,IC50,second compound 10 µM,0.0409 µM
same,"viability, T/C",[1],103%
same,"viability, T/C",[2],60.8%
same,"viability, T/C",[3],87.7%
same,"viability, T/C",[4],71.9%
same,"viability, T/C",[5],70%
same,"viability, T/C",[6],26.3%
same,"viability, T/C",[7],76.7%
same,"viability, T/C",[8],55.6%
same,"viability, T/C",[9],69.1%
same,"viability, T/C",[10],60.2%
same,"viability, T/C",[11],53.1%
same,"viability, T/C",[12],29.7%
same,"viability, T/C",[13],50.7%
same,"viability, T/C",[14],57.1%
same,"viability, T/C",[15],46.9%
same,"viability, T/C",[16],41.3%
same,"viability, T/C",[17],38.1%
same,"viability, T/C",[18],49.9%
same,"viability, T/C",[19],59.7%
same,"viability, T/C",[20],36.7%
same,"viability, T/C",[21],39.8%
same,"viability, T/C",[22],34.4%
same,"viability, T/C",[23],38%
same,"viability, T/C",[24],30.6%
same,"viability, T/C",[25],53.5%
same,"viability, T/C",[26],36.3%
same,"viability, T/C",[27],35%
same,"viability, T/C",[28],33%
same,"viability, T/C",[29],33.3%
same,"viability, T/C",[30],29.7%
same,"viability, T/C",[31],53.9%
same,"viability, T/C",[32],36.8%
same,"viability, T/C",[33],34.2%
same,"viability, T/C",[34],31.6%
same,"viability, T/C",[35],30.1%
same,"viability, T/C",[36],24.1%
